Laboratory results: patent US8920788B2, “High-molecular weight conjugate of physiologically active substances” (priority 2008, dated 2014)
Where a name gives a salt, the structure may show the parent alone.

What was measured:
[1] = system: Mouse colon cancer, Colon 26; experiment: Antitumor activity, subcutaneously transplanted Colon 26 in mice; type: in vivo, female CDF1 mice; details: dose 15 mg/kg, once into tail vein
From the text: Mouse colon cancer, Colon 26, maintained by serial subcutaneous subculture in mice, was minced into about 2-mm cubic fragments, and the fragments were subcutaneously transplanted on the dorsal part of female CDF1 mice with a trocar. Eight days after the tumor transplantation, the high-molecular weight conjugate according to the present invention (Compound 2 and Compound 4) or a control drug (Comparative Compound 1 and doxorubicin hydrochloride) was each administered once into the mouse tail vein in a way such that each mouse received the same dose per body weight in terms of doxorubicin. Each compound was dissolved in a 5% liquid glucose for injection and used. After the administration, the major axis (L mm) and the minor axis (W mm) of the tumor were measured using a caliper, and the tumor volume was calculated by the formula (L×W^2)/2.

[2] = Lethal dose of the control drug; type: in vivo; details: control drug of the antitumor test
Description: The lethal dose of doxorubicin used as the control drug was 30 mg/kg, and therefore doxorubicin was administered at a dose of 15 mg/kg to perform the antitumor test.

COc1cccc2c1C(=O)c1c(O)c3c(c(O)c1C2=O)C[C@@](O)(C(=O)CO)C[C@@H]3O[C@H]1C[C@H](N)[C@H](O)[C@H](C)O1 [Doxorubicin, doxorubicin hydrochloride]
relative tumor volume based on the tumor volume on the day of administration ([1]; day 0 after administration): 1.00 | relative tumor volume based on the tumor volume on the day of administration ([1]; day 3 after administration): 1.79 | relative tumor volume based on the tumor volume on the day of administration ([1]; day 7 after administration): 3.89 | relative tumor volume based on the tumor volume on the day of administration ([1]; day 10 after administration): 5.27 | relative tumor volume based on the tumor volume on the day of administration ([1]; day 14 after administration): 12.17 | lethal dose [2]: 30 mg/kg
